Values after ≈ are worked out from the molar mass of the structure shown.
Key:
[1] = Inhibition of NF-kappaB by ELISA assay; design: species or system Homo sapiens
MCF7 = experiment: Cytotoxicity against MCF7 cells; type: functional; settings: Homo sapiens, read-out: ED50 (the source's name)
LNCaP = experiment: Cytotoxicity against LNCaP cells; type: functional; settings: Homo sapiens, read-out: ED50 (the source's name)
Lu1 = experiment: Cytotoxicity against Lu1 cells; type: functional; settings: Homo sapiens, read-out: ED50 (the source's name)

SMILES | IC50 [1] | further results
COc1ccc(C2OC(=O)c3c(OC)cc(OC)cc32)cc1 (centres undefined) | 1900 nM | –
C/C=C1/C(=O)C[C@H]2[C@@H]3CC=C4[C@@H](O)[C@@H](O)CC[C@]4(C)[C@H]3CC[C@]12C | – | EC50 (MCF7): 4.2 µg/mL (≈ 12.7 µM); EC50 (LNCaP): 4.7 µg/mL (≈ 14.2 µM); EC50 (Lu1): 4.6 µg/mL (≈ 13.9 µM)
COc1ccc([C@]23Oc4cc(OC)cc(OC)c4[C@](O)([C@H](C(=O)N4CCC[C@@H]4OC)[C@H]2c2ccccc2)[C@@H]3O)cc1 (relative stereo) [PONAPENSIN] | 60 nM | –
CCC(C)C(=O)N[C@@H]1CCCN1C(=O)[C@@H]1[C@@H](c2ccccc2)[C@]2(c3ccc(OC)cc3)Oc3cc(OC)cc(OC)c3[C@@]1(O)[C@@H]2OC(C)=O (some centres undefined) [4-EPIAGLAIN A] | > 5000 nM | –
COC(=O)[C@H]1[C@@H](O)[C@@]2(O)c3c(OC)cc(OC)cc3O[C@@]2(c2ccc(OC)cc2)[C@@H]1c1ccccc1 [AGLAFOLIN] | 2300 nM | –
CCC(C)C(=O)N[C@@H]1CCCN1C(=O)[C@H]1[C@H](c2ccccc2)[C@]2(c3ccc(OC)cc3)Oc3cc(OC)cc(OC)c3[C@@]1(O)[C@@H]2O (some centres undefined) [AGLAIN B] | > 5000 nM | –
COc1ccc([C@@]23Oc4cc(OC)cc(OC)c4[C@]2(O)[C@H](O)[C@H](C(=O)N(C)C)[C@H]3c2ccccc2)cc1 [ROCAGLAMIDE] | 2000 nM | –
